Experiments:
Format in all cases: in vivo
[1] = tested on: larvae of the banded cucumber beetle (Diabrotica balteata); assay: Diabrotica balteata spray test; conditions: 168 h, 100 g/ha (=32 μg/well), wheat seeds, after 7 days, read-out: efficacy (seedling growth)
Summary of the method: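 Efficacy in % was read 7 days after infesting with 10-20 larvae per unit. Before infestation, 1-day-germinated wheat seedlings (5 per well) were sprayed with the active ingredient, formulated in acetone and dimethylformamide plus emulsifier and diluted with water containing emulsifier.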

[2] = tested on: green peach aphid (Myzus persicae); assay: Myzus persicae spray test; conditions: foliar, 120 h, Chinese cabbage leaf disks, after 5 days
Summary of the method: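 Percent mortality read 5 days after spraying, where 100% is total kill and 0% none. The spray contained compound in acetone plus dimethylformamide, diluted with 1000 ppm emulsifier water. It was applied to Brassica pekinensis leaf disks carrying mixed-instar green peach aphids.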

[3] = tested on: fall armyworm larvae (Spodoptera frugiperda); assay: Spodoptera frugiperda spray test (maize leaf sections); conditions: 168 h
Summary of the method: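 Percent kill of Spodoptera frugiperda caterpillars read at day 7. Larvae placed on dried Zea mays leaf pieces previously sprayed with test preparation, made from acetone plus DMF and diluted with emulsifier-containing water (1000 ppm).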

[4] = tested on: adult mosquitoes Aedes aegypti strain MONHEIM; assay: Aedes aegypti test (AEDSAE surface treatment & contact assay); conditions: 24 hours after contact, read-out: efficacy (mortality); for mortality at 4 mg/m2: surface concentration 4 mg/m^2, 30 min exposure; for mortality at 20 mg/m2: surface concentration 20 mg/m^2, 30 min exposure
Summary of the method: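 Test compound in acetone (2 mg/ml) with 2000 ppm rapeseed oil methyl ester was dried onto a glazed tile. Adult Aedes aegypti MONHEIM were exposed to the treated surface for 30 minutes. Percent mortality was scored 24 hours after contact.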

[5] = tested on: adult mosquitoes Anopheles funestus strain FUMOZ-R; assay: Anopheles funestus test (ANPHFU surface treatment & contact assay); conditions: 24 hours after contact, read-out: efficacy (mortality); for mortality at 20 mg/m2: surface concentration 20 mg/m^2, 30 min exposure; for mortality at 4 mg/m2: surface concentration 4 mg/m^2, 30 min exposure
Experimental: Anopheles funestus Test (ANPHFU Surface Treatment & Contact Assay) • Solvent: Aceton+2000 ppm rapeseed oil methyl ester (RME)
In order to produce a sufficient, active ingredient containing solution it is necessary to solve the test compound in the solvent-mix (acetone at 2 mg/ml/RME 2000 ppm). This solution is pipetted onto a glazed tile and after evaporation of the acetone, adult mosquitoes of the species Anopheles funestus strain FUMOZ-R (Hunt et al., Med. Vet. Entomol. 2005 September; 19(3): 271-275) are placed onto the dried surface. The exposure time is 30 minutes.
Mortality in percent (%) is determined 24 hours after contact of the insects to the treated surface. 100% mortality means that all tested insects are dead, whereas 0% means that no insect died.

[6] = tested on: adult flies Musca domestica strain WHO-N; assay: Musca domestica test (MUSCDO surface treatment & contact assay); conditions: 24 hours after contact, read-out: efficacy (mortality); for mortality at 4 mg/m2: surface concentration 4 mg/m^2, 30 min exposure; for mortality at 20 mg/m2: surface concentration 20 mg/m^2, 30 min exposure
Summary of the method: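 Percent kill read 24 h post-contact, after adult flies (strain WHO-N) spent 30 min on a glazed tile treated with test solution (acetone, 2 mg/ml, plus 2000 ppm rapeseed oil methyl ester) and dried.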

[7] = tested on: Rhipicephalus microplus larvae (strain Parkhurst, resistant against synthetic pyrethroids); assay: Rhipicephalus (Boophilus) microplus in-vitro contact test, larval cattle tick; conditions: 5 μg/cm^2 (=500 g/ha), after 48 hours, read-out: efficacy (larvae dead or moribund)
Summary of the method: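 Efficacy is read at 48 h from negative geotactic behaviour after larvae are patted to the tube bottom, expressed as percentage dead or moribund. Larvae (20-50) sit in glass tubes whose walls carry an evaporated acetone film of compound (900 ppm corresponds to 5 μg/cm^2), kept at 27° C., 85% relative humidity.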

[8] = tested on: adult engorged female ticks (Rhipicephalus microplus); assay: Rhipicephalus (Boophilus) microplus injection test; conditions: 168 h, egg deposition after 7 days, read-out: efficacy (infertile eggs); for pest or weed control at 0.004 mg: 4 μg/animal
Summary of the method: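 Five adult engorged female ticks each injected into the abdomen with 1 μL of compound in DMSO, then kept in a climate chamber. Fertile egg deposition assessed after 7 days, with unclear eggs held until hatching around 42 days; efficacy 100% means all eggs infertile, 0% all fertile.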

[9] = tested on: adult cat fleas (Ctenocephalides felis); assay: Ctenocephalides felis in-vitro contact test, adult cat flea; conditions: 5 μg/cm^2 (=500 g/ha), after 48 hours
Summary of the method: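 After 48 h of room-temperature exposure in tubes whose walls carried dried compound residue (5 μg/cm^2, from 900 ppm acetone solution), adult cat fleas (5-10 per tube) were heat-challenged at 45-50° C up to 5 min. Fleas unable to climb away were counted dead or moribund, expressed as % efficacy.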

[10] = tested on: adult unfed cat fleas (Ctenocephalides felis); assay: Ctenocephalides felis oral test; conditions: 48 h
Summary of the method: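 About 20 adult unfed fleas fed through parafilm on cattle blood containing compound (DMSO stock diluted in blood), blood held at 37 °C and fleas at room temperature. Mortality (%) scored after 2 days.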

[11] = tested on: green peach aphid (Myzus persicae); assay: Myzus persicae oral test; conditions: 120 h
Summary of the method: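 Compound was dissolved in acetone, diluted with water and mixed into IPL41 insect medium with sugar under a parafilm seal. A mixed aphid population fed through the parafilm, and mortality (%) was scored after 5 days.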

[12] = tested on: adult brown dog ticks (Rhipicephalus sanguineus); assay: Rhipicephalus sanguineus in-vitro contact test with adult brown dog ticks; conditions: 5 μg/cm^2 (=500 g/ha), after 48 hours, read-out: efficacy (ticks dead or moribund)
Experimental: Rhipicephalus sanguineus—In-Vitro Contact Tests with Adult Brown Dog Ticks
9 mg compound is solved in 1 mL acetone and diluted with acetone to the desired concentration. 250 μL of the test solution is filled in 25 mL glass test tubes and homogeneously distributed on the inner walls by rotation and tilting on a shaking device (2 h at 30 rpm). With a compound concentration of 900 ppm, an inner surface of 44.7 cm^2 and a homogeneous distribution, a dose of 5 μg/cm^2 is achieved.
After the solvent has evaporated, each test tube is filled with 5-10 adult brown dog ticks (Rhipicephalus sanguineus), closed with a perforated lid and incubated in a lying position at room temperature and relative humidity. After 48 hours efficacy is determined. The ticks are patted on the ground of the tubes and are incubated on a heating plate at 45-50° C. for at most 5 minutes. Immotile or uncoordinated moving ticks, which are not able to escape the heat by climbing upwards, are marked as dead or moribund.
An efficacy of 100% means all ticks are dead or moribund; 0% means no ticks are dead or moribund.

[13] = tested on: larvae of the southern green stink bug (Nezara viridula); assay: Nezara viridula spray test; conditions: in Hordeum vulgare, 96 h
Summary of the method: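 Mortality (%) of stink bug larvae on treated barley (Hordeum vulgare) was scored 4 days after infestation. Test solutions came from an acetone/DMF concentrate diluted with water containing 1000 ppm emulsifier and were sprayed onto plants before larvae were added.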

[14] = tested on: brown planthopper (Nilaparvata lugens); assay: Nilaparvata lugens spray test; conditions: 96 h, rice plants, after 4 days
Experimental: Nilaparvata lugens—Spray Test • Solvent: 78.0 parts by weight of acetone • 1.5 parts by weight of dimethylformamide • Emulsifier: alkylarylpolyglycol ether
To produce a suitable preparation of active compound, 1 part by weight of active compound is mixed with the stated amount of solvents and is diluted with water, containing an emulsifier concentration of 1000 ppm, to the desired concentration. Further test concentrations are prepared by dilution with emulsifier containing water.
Rice plants (Oryza sativa) are sprayed with a preparation of the active ingredient of the desired concentration and the plants are infested with the brown planthopper (Nilaparvata lugens).
After 4 days mortality in % is determined. 100% means all planthoppers have been killed and 0% means none of the planthoppers have been killed.

`CC(NC(=O)c1cc(OC(F)(F)F)cc(C2(C#N)CC2)c1)c1ncnn1-c1ncc(C#N)s1` (racemic) [I-87, (rac)-3-(1-cyanocyclopropyl)-N-{1-[1-(5-cyano-1,3-thiazol-2-yl)-1H-1,2,4-triazol-5-yl]ethyl}-5-(trifluoromethoxy)benzamide] was tested, and the pest or weed control at 32 µg/disc, 100 g/ha [1] was 100%, the mortality at 100 g/ha [2] was 100% and the mortality at 100 g/ha [3] was 100%. It also gave a mortality at 4 mg/m2 [4] of 80 to 100%, a mortality at 20 mg/m2 [4] of 80 to 100% and a mortality at 20 mg/m2 [5] of 80 to 100%. For the same compound, the mortality at 4 mg/m2 [6] was 90 to 100% and the mortality at 20 mg/m2 [6] was 80 to 100%.

In the case of `CC(NC(=O)c1cc(OC(F)(F)F)cc(C(F)F)c1)c1ncnn1-c1ncc(C#N)s1` (centres unmarked) [I-26], the pest or weed control at 5 µg/cm2 [7] is reported as 100%, the pest or weed control at 0.004 mg [8] is reported as 100% and the “efficacy (fleas dead or moribund)” value [9] is reported as 100%. The mortality at 100 ppm [10] was 100%, the pest or weed control at 32 µg/disc, 100 g/ha [1] was 100% and the mortality at 4 ppm [11] was 100%. For the same compound, the mortality at 100 g/ha [3] was 100%, the mortality at 20 mg/m2 [4] was 80 to 100% and the mortality at 20 mg/m2 [5] was 80 to 100%. For the same compound, the mortality at 4 mg/m2 [6] was 90 to 100% and the mortality at 20 mg/m2 [6] was 80 to 100%.

`CC(NC(=O)c1cc(OC(F)F)cc(OC(F)F)c1)c1ncnn1-c1ncc(C#N)s1` (centres unmarked) [I-31] showed a pest or weed control at 5 µg/cm2 [7] of 100%, a pest or weed control at 0.004 mg [8] of 100% and a mortality at 100 ppm [10] of 100%. For the same compound, the pest or weed control at 5 µg/cm2, 500 g/ha [12] was 100%, the pest or weed control at 32 µg/disc, 100 g/ha [1] was 100% and the mortality at 4 ppm [11] was 100%. The mortality at 100 g/ha [2] was 90%, the mortality at 100 g/ha [3] was 100% and the mortality at 4 mg/m2 [4] was 80 to 100%. For the same compound, the mortality at 20 mg/m2 [4] was 80 to 100%, the mortality at 4 mg/m2 [5] was 80 to 100% and the mortality at 4 mg/m2 [6] was 90 to 100%. The mortality at 20 mg/m2 [6] was 80 to 100%.

`C[C@H](NC(=O)c1cc(Cl)cc(S(C)(=O)=O)c1)c1ncnn1-c1ncc(C#N)s1` [I-36] showed a pest or weed control at 5 µg/cm2 [7] of 90%, a pest or weed control at 0.004 mg [8] of 100% and a pest or weed control at 0.02 mg ([8]; 20 μg/animal) of 100%. For the same compound, the “efficacy (fleas dead or moribund)” value [9] was 100%, the mortality at 100 ppm [10] was 100% and the pest or weed control at 32 µg/disc, 100 g/ha [1] was 100%. It also gave a mortality at 4 ppm [11] of 100%, a mortality at 100 g/ha [3] of 100% and a mortality at 4 mg/m2 [4] of 80 to 100%. For the same compound, the mortality at 20 mg/m2 [4] was 80 to 100% and the mortality at 4 mg/m2 [5] was 80 to 100%.

For `C[C@H](NC(=O)c1cc(C(F)(F)F)cc(C(F)(F)F)c1)c1ncnn1-c1ncc(C(=O)N(C)C)s1` [I-64], the pest or weed control at 5 µg/cm2 [7] was 100%, the “efficacy (fleas dead or moribund)” value [9] was 100% and the pest or weed control at 5 µg/cm2, 500 g/ha [12] was 100%. It also gave a pest or weed control at 32 µg/disc, 100 g/ha [1] of 100%, a mortality at 100 g/ha [2] of 100% and a mortality at 500 g/ha [13] of 100%. For the same compound, the mortality at 100 g/ha ([14]; 100 g/ha) was 90%, the mortality at 500 g/ha ([14]; 500 g/ha) was 90% and the mortality at 100 g/ha [3] was 100%. For the same compound, the mortality at 20 mg/m2 [4] was 80 to 100%, the mortality at 20 mg/m2 [5] was 80 to 100% and the mortality at 4 mg/m2 [6] was 90 to 100%. For the same compound, the mortality at 20 mg/m2 [6] was 80 to 100%.

Source: patent publication US20230065953A1, “NOVEL HETEROARYL-TRIAZOLE COMPOUNDS AS PESTICIDES” (Bayer Aktiengesellschaft, priority 2019, published 2023)
